Eleven molecules from PubChem BioAssay (NCI) can be followed below.

Test systems include M14 melanoma; UACC-62 melanoma; SK-MEL-2 melanoma; HT29 colon; TK-10 renal; EKVX NSCLC; CCRF-CEM leukemia; NCI-H226 lung; OVCAR-5 ovarian; HCT-15 colon.
Assay in all cases: NCI anticancer screen, dose series, 48 h

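Values below derive from 48-hour exposures of cells grown in 96-well plates, with endpoints linearly interpolated between the two concentrations bracketing the appropriate inhibition level. GI50 = concentration required for 50% inhibition of growth. TGI: concentration producing complete growth inhibition.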 Where only a bound is given, the exact number is not on record here.

For `C[S+](C)CCOC(=O)C(=[N+]=[N-])c1ccc([N+](=O)[O-])cc1`, the TGI in the test with M14 melanoma, in the test with UACC-62 melanoma, with SK-MEL-2 melanoma, with HT29 colon, in the test with TK-10 renal and with EKVX NSCLC was over 100 µM throughout. Moreover, the TGI in the test with CCRF-CEM leukemia, in the test on NCI-H226 lung, in the test with OVCAR-5 ovarian and in the test with HCT-15 colon was over 100 µM in each case.

Turning to `N#Cc1c(NN)nc(NN)c(C#N)c1-c1ccccc1`, the TGI in the test with M14 melanoma, in the test on UACC-62 melanoma, with SK-MEL-2 melanoma, in the test with HT29 colon, with TK-10 renal and in the test on EKVX NSCLC was over 100 µM in each case. In addition, the TGI in the test with CCRF-CEM leukemia, with NCI-H226 lung, in the test on OVCAR-5 ovarian and in the test with HCT-15 colon was over 100 µM each time.

On to `COc1ccc(/C=C/C(=O)c2ccc(SC)cc2)cc1OC`, for which the GI50 in the test on M14 melanoma is 3.83 µM; in the test with UACC-62 melanoma, 12.7 µM; in the test with SK-MEL-2 melanoma, 19.4 µM; with HT29 colon it was 4.57 µM; in the test with TK-10 renal it was 14.7 µM; with EKVX NSCLC it was 19.1 µM. In addition, the GI50 in the test on CCRF-CEM leukemia was 5.26 µM; in the test with NCI-H226 lung it was 8.42 µM; in the test with OVCAR-5 ovarian it was 16.4 µM; in the test on HCT-15 colon, 3.1 µM. The TGI stood at 14.2 µM with M14 melanoma; 27.1 µM in the test with UACC-62 melanoma; 42.6 µM with SK-MEL-2 melanoma; 87.5 µM in the test on HT29 colon; 32.8 µM in the test on TK-10 renal; 35.9 µM in the test with EKVX NSCLC. For the same molecule, the TGI with CCRF-CEM leukemia came to 82.1 µM; in the test on NCI-H226 lung, 45.1 µM; in the test with OVCAR-5 ovarian it was 31.7 µM; in the test on HCT-15 colon, 13.3 µM.

For the molecule `Cc1cc2nc(CCC(=O)O)c(=O)[nH]c2cc1C`, the TGI in the test with M14 melanoma, in the test with UACC-62 melanoma, in the test with SK-MEL-2 melanoma, in the test with HT29 colon, in the test on TK-10 renal and in the test on EKVX NSCLC was over 100 µM throughout. The TGI with CCRF-CEM leukemia, in the test on NCI-H226 lung, in the test on OVCAR-5 ovarian and in the test on HCT-15 colon was over 100 µM in each case.

With `CCCCCC/C=C1\CCC(CN2CCCC2)C1=O` (stereo not given), the TGI worked out at 33.6 µM in the test with M14 melanoma; 35.9 µM in the test with UACC-62 melanoma; 30.5 µM in the test on SK-MEL-2 melanoma; 34.2 µM in the test on HT29 colon; 17.4 µM with TK-10 renal; 34.2 µM in the test with EKVX NSCLC. For the same molecule, the TGI in the test on CCRF-CEM leukemia amounted to 20.9 µM; in the test on NCI-H226 lung, 34.3 µM; in the test with OVCAR-5 ovarian it was 32.3 µM; in the test on HCT-15 colon it was 22.8 µM.

In the case of `Oc1ccccc1C=NCc1ccco1`, the TGI with M14 melanoma, in the test with UACC-62 melanoma, with HT29 colon, in the test on TK-10 renal, with EKVX NSCLC and in the test on CCRF-CEM leukemia was over 100 µM in each case. Further, the TGI with NCI-H226 lung and in the test on OVCAR-5 ovarian was over 100 µM each time.

With `O=c1nc2n(-c3ccc(Cl)cc3)c3ccc([N+](=O)[O-])cc3cc-2c(=O)[nH]1`, the GI50 with M14 melanoma is 20.2 µM; in the test on UACC-62 melanoma it was 11.8 µM; in the test on SK-MEL-2 melanoma, 55.1 µM; with HT29 colon it was 20.2 µM; in the test with TK-10 renal, 25.7 µM; with EKVX NSCLC, 37.2 µM. Moreover, the GI50 was 9.37 µM in the test with CCRF-CEM leukemia, 21.1 µM in the test with NCI-H226 lung, 28.8 µM in the test on OVCAR-5 ovarian and 8.84 µM in the test with HCT-15 colon. For the same molecule, the TGI in the test with M14 melanoma is 37.7 µM; in the test with UACC-62 melanoma, 28.6 µM; in the test on SK-MEL-2 melanoma, over 100 µM; with HT29 colon, 43.1 µM; in the test on TK-10 renal, 62.7 µM; with EKVX NSCLC it was 82.5 µM. In addition, the TGI in the test with CCRF-CEM leukemia was over 100 µM; in the test with NCI-H226 lung, 60.5 µM; in the test on OVCAR-5 ovarian, 73.8 µM; in the test on HCT-15 colon it was over 100 µM.

On to `Clc1ccc2c(c1)C1C(CO2)C(c2ccccc2)=NN1c1ccccc1` (stereo not given), for which the TGI with SK-MEL-2 melanoma was 75.4 µM; with HT29 colon, over 100 µM; in the test on TK-10 renal, over 100 µM; in the test on EKVX NSCLC, 68.6 µM; in the test on CCRF-CEM leukemia, 99.1 µM; in the test on OVCAR-5 ovarian, over 100 µM.

Consider `NC(N)=N/N=C\c1cccc(OCc2ccccc2)c1`, for which the GI50 is 1.67 µM with UACC-62 melanoma; 3.31 µM in the test on SK-MEL-2 melanoma; 1.83 µM with HT29 colon; 12.6 µM with TK-10 renal; 11 µM in the test on EKVX NSCLC; 9.53 µM in the test on CCRF-CEM leukemia. The GI50 is 6.74 µM in the test on NCI-H226 lung, 11.5 µM in the test on OVCAR-5 ovarian and 3.29 µM in the test with HCT-15 colon. The TGI in the test on UACC-62 melanoma amounted to 3.45 µM; in the test on SK-MEL-2 melanoma it was 13 µM; with HT29 colon, 4.01 µM; with TK-10 renal it was 39.1 µM; in the test on EKVX NSCLC, 25.4 µM; in the test with CCRF-CEM leukemia it was 33.7 µM. Moreover, the TGI in the test on NCI-H226 lung was 25.9 µM; in the test on OVCAR-5 ovarian, 33.7 µM; with HCT-15 colon it was 12.9 µM.

Consider `CC(=O)OC1COC(Nc2ccc(C(C)=O)cc2)C(OC(C)=O)C1OC(C)=O` (stereo not given), for which the TGI with M14 melanoma, in the test with UACC-62 melanoma, in the test on SK-MEL-2 melanoma, with HT29 colon, with TK-10 renal and with EKVX NSCLC was over 100 µM in each case. Besides, the TGI in the test with CCRF-CEM leukemia, with NCI-H226 lung and with HCT-15 colon was over 100 µM throughout.

On to `CC(=O)[CH-]C(=O)c1ccccc1.CC(=O)[CH-]C(=O)c1ccccc1.[Eu+3].[OH-].[OH3+]`, for which the GI50 in the test on M14 melanoma, with UACC-62 melanoma, in the test with HT29 colon, in the test with TK-10 renal, in the test on EKVX NSCLC and in the test on CCRF-CEM leukemia was over 100 µM each time. The GI50 in the test with HCT-15 colon is over 100 µM. For the same molecule, the TGI in the test on M14 melanoma, with UACC-62 melanoma, with HT29 colon, with TK-10 renal, in the test with EKVX NSCLC and in the test with CCRF-CEM leukemia was over 100 µM each time. In the test with HCT-15 colon, the TGI is over 100 µM.
